Results: patent US20160053227A1, “AGENT FOR INDUCING DIFFERENTIATION OF WHITE ADIPOCYTES INTO BROWN-LIKE ADIPOCYTES” (UHA MIKAKUTO CO., LTD., priority 2013, published 2016)

Legend:
[1] = Physicochemical characteristics: solubility
Excerpt: The physicochemical characteristics of UHA4022 are as follows.

[2] = test system: 3T3-L1 precursor adipocyte; test: Example II-3: index gene expression in adipocytes after maturation, with or without adrenaline stimulation, real-time RT-PCR; type: cell-based, mouse; settings: matured cells, 1 μM L-adrenaline for 2 hours; control 3.1 times
Description: Since it was evaluated in Example II-2 whether the derivative-containing composition induces the differentiation from the white adipocytes into the brown-like adipocytes using the cells immediately after the induction of the differentiation, it was evaluated in Example II-3 whether the relevant induced cell maintains the trait of the brown-like adipocytes even after maturation using matured adipocytes. The evaluation was made using as indexes the expression level of each gene of FGF-21, PGC-1α, and cell death-inducing DFFA-like effector a (Cidea) which is a brown-like adipocyte marker gene as well as the expression level of […] gene when adding adrenaline to the adipocyte after maturation based on the understanding that the brown-like adipocyte responds to the adrenaline stimulation thereby increasing the expression level of UCP1 gene, whereby the induction of the differentiation of the white adipocytes into the brown-like adipocytes was confirmed. […]
Based on the Ct values (Threshold Cycle: number of cycles for achieving a certain amplification level (threshold)) of […], FGF-21, PGC-1α, PGC-1β, Cidea, and UCP1 in each cell obtained, the relative value of each gene expression level of FGF-21, PGC-1β, PGC-1α, Cidea, and UCP1 was calculated.

SMILES	Solubility in chloroform ([1]; Chloroform)	Solubility in DMSO ([1]; DMSO)	Solubility in ethanol ([1]; Ethanol)	Solubility in ethyl acetate ([1]; Ethyl acetate)	Solubility in methanol ([1]; Methanol)	Solubility in water ([1]; Water)	UCP1 gene expression-increasing effect of adrenaline, presence vs absence of adrenaline [2]
Oc1ccc(/C=C\c2c3c(cc4c2C(c2ccc(O)cc2)Cc2cc(O)cc(O)c2-4)-c2c(O)cc(O)cc2CC3c2ccc(O)cc2)cc1 (stereo not shown) [UHA4022]	Hardly soluble	Soluble	Soluble	Hardly soluble	Soluble	Hardly soluble	
CN(CCOc1ccc(CC2SC(=O)NC2=O)cc1)c1ccccn1 (stereo not shown) [rosiglitazone]							6.2 times
